Values belong to the molecule of their own block, whether it stands above or below them.
Key:
[1] = system: Thy-1 immunoreactivity (retinal ganglion cells) in the ischaemic retina; test: Thy-1 immunofluorescence of the retina after ischaemia/reperfusion; format: in vivo, Wistar rat; settings: 0.5 nmole i.v.i. pre-treatment; 7 days after I/R
Experimental: (§1) For electro-physiological, immuohistochemical, and molecular biological studies, drug administration was carried out with pre-administration (60 minutes before HIOP) of vehicle (saline for FA/TMP), FA (0.5 or 0.1 nmole), or TMP (0.5 nmole). The 60-minute HIOP procedure to induce ischaemic damage was carried out as defined. Intra-vitreous injection (i.v.i.) of 5 μl of each compound was given to the ‘ischaemic’ eye of each test rat using a 30-gauge needle attached to a 20 μl Hamilton syringe. As a control, the same volume of vehicle was intravitreously injected into the “ischaemic” eye of each control rat. In both cases, the fellow untreated eye acted as a normal control eye. In this case, FA, TMP, or vehicle was applied only to the eye (ipsilateral) which received ischaemia. Dose-response experiments for FA will also be performed.
On day 7 after retinal ischaemia pre-treated with vehicle or tested compounds, the Wistar rats were killed by an overdose of sodium pentobarbitone injected into the peritoneal cavity as mentioned earlier. Rat retinas were carefully and rapidly dissected from the eyecups with the aim of completely detaching the sensory retina from the RPEs. They were incubated in Mg^2+-free Locke's buffer containing: 154 mM NaCl, 5.6 mM KCl, 2.3 mM CaCl2, 3.6 mM NaHCO3, 5 mM N-[2-hydroxyethyl]piperazine-N′-[2-ethanesulfonic acid] (HEPES) and 5.6 mM D-glucose. […]

[2] = system: rats subjected to 60 min retinal ischaemia plus reperfusion (I/R); test: Flash ERG b-wave ratio after 60 min HIOP-induced retinal ischaemia plus reperfusion; format: in vivo, Wistar rat
Excerpt: Six-week old Wistar rats (body weight: 250˜500 g) were anaesthetized with an intramuscular injection of ketamine and xylazine as described above and placed in a stereotaxic frame. The anterior chamber of one eye, with the other serving as control, was cannulated with a 30-gauge needle connected to a 0.9% saline reservoir; this caused an increase in IOP to 120 mmHg. A whitening of the iris and the fundus of the retina confirmed induction of an ischaemic insult (Block, F., et al. Gen Pharmacol. 30(3):281-7, 1997).
as §1

[3] = system: ChAT immunoreactivity (cholinergic amacrine neurones) in the siderotic retina; test: ChAT immunofluorescence of the retina after experimental siderosis; format: in vivo, Wistar rat; settings: 0.5 nmole i.v.i. 60 minutes before siderosis; 25 nmole FeSO4 for 5 days
Experimental: (§2) Iron toxicity and the formation of .OH were stimulated by an intravitreous application of FeSO4 with or without the presence of the test compounds FA and/or TMP. For the dose-response iron toxicity experiments, 24 mM (72 nmoles), 8 mM (24 nmoles) and 0.8 mM (2.4 nmoles) of FeSO4 were utilized. To test drug biochemical effects on the oxidative stress caused by the experimental siderosis, an intravitreous injection of FA (100 mM) was carried out 60 minutes before siderosis. In further electro-physiological and immuohistochemical studies, with or without pre-administration of 0.5 or 0.1 nmoles of FA/TMP, a medium amount of FeSO4 (25 nmole) was chosen to induce damage due to such as an oxidative stress so as not to reach the maximal pharmacological effect.
The time course of the experiments involved enucleation of the rat eyes and retrieval of the retinal pieces on day 1 (Western blot), day 5 (immunohistochemistry) and day 28 (histopathology) after experimental siderosis with/without each test compound.
For immunohistochemical analysis, rats were intracardially perfused first with 0.9% saline and then with 4% (w/v) paraformaldehyde. […] In order to observe the expression of ‘ROS-related enzymes’, retinal sections were incubated with primary antibody: rabbit polyclonal anti-rat manganese SOD (1:100; Upstate, NY) or rabbit anti-catalase (1:1000; Calbiochem, CA). […]

[4] = system: rats given experimental siderosis; test: Flash ERG in experimental siderosis (intravitreous FeSO4 or iron particle); settings: for Effect on FeSO4 induced reduction in the b-wave amplitudes: 0.5 or 0.1 nmoles pre-administered, 25 nmole FeSO4, 3 and 5 days after siderosis, vs saline-treated animals
Experimental: The animals were first dark adapted for at least 8 hours, anaesthetized as already described and the pupils dilated with 1% tropicamide and 2.5% phenylephrine. The animal was then placed in a stereotaxic frame and the body temperature maintained at 37° C. with an electrical blanket. A platinum wire loop was placed on the corneal surface to act as the recording electrode. A ground electrode was connected to the scruff of the back together with a reference electrode to the tongue of the animal. A strobe was placed 5 cm in front of the animal to provide a stimulus of 0.5 Hz. Fifteen consecutive responses were recorded at two-second intervals and at 10 kHz; the responses were amplified and averaged using an amplifier P511/regulated power supply RPS107/stimulator PS22 (Grass-Telefactor, Astro-Med. Inc., R1, USA). The a-wave amplitude was measured from the baseline to the trough of the a-wave and the b-wave amplitude was measured from the trough of the a-wave to the peak of the b-wave.
The Wistar rats were anesthetized with an intramuscular injection of ketamine (100 mg/kg) and xylazine (5 mg/kg), and placed in a stereotaxic frame. The chronic model of experimental siderosis was established as follows. Through a port punctured by a 20-gauge intravenous catheter (0.5 mm from the corneal limbus), an autoclaved defined iron particle was slowly and carefully implanted into the vitreous cavity of one eye of each experimental rat through the catheter sheath by the catheter inner shaft (a needle). The punctured wound was then sutured with sterilized 10-0 nylon to keep a close system. Similarly (0.5 mm from the corneal limbus) and guided by the 20-gauge intravenous catheter, an autoclaved acrylate chip was implanted into the vitreous cavity of one eye of each control rat.
Similarly, the acute model of experimental siderosis was set up utilizing various concentrations of iron sulfate with the control group being injected with saline. The animals were kept normothermic with a heated water jacket after anesthesia and were placed on an electrical blanket during recovery (both set at 37° C.).
as §2

hydroxyl radicals (.OH) [5] = test: Salicylate trapping / vitreous microdialysis of hydroxyl radicals (2,3-DHBA) in HIOP-induced retinal ischaemia; format: in vivo, Wistar rat; settings: for Levels of 2,3-DHBA (.OH) in vitreous dialysate: at 60 minutes of HIOP-induced retinal ischaemia, n=4
Excerpt: Rats were anesthetized and placed in a stereotaxic frame. This approach was adapted from Louzada-Junior et al with further modification. The microdilaysis tube was inserted into the vitreous cavity through the nonvascular pars plana of the sclera (0.5 mm from the corneal limbus) after it had been pre-punctured with a 25-gauge needle. This avoided the problem of bleeding into the vitreous cavity with consequent contamination of vitreous. With the microdialysis probe in position, the whole retina was subjected to HIOP-induced ischaemia for 120 minutes.
After an equilibration period of 45 min, a stable baseline was obtained. HIOP-induced retinal ischaemia was then performed. Samples were collected every 15 minutes starting 45 minutes before ischaemia and continuing for the subsequent 120-minute ischaemia. The microdialysates collected from the microdialysis probe were deposited into polyethylene vials (Microbiotech, Stockholm, Sweden) containing 15 μl of 0.1 M perchloric acid and were stored at −70° C. until analysis. The formation of .OH was quantified as the increase in 2,3-DHBA, which is the hydroxylative product of salicylic acid. Since 2,5-DHBA can also be produced via enzymatic pathways by virtue of P-450, 2,3-DHBA is considered to be a specific marker of .OH. Eluted microdialysates were directly injected into and 2,3-DHBA was analyzed by a high performance liquid chromatograph coupled with an electrochemical detector (HPLC-EC; Model LC-4C, Bioanalytical System Inc., West Lafayette, IN, USA).
The DHBA compound was oxidized using a glassy carbon working electrode (oxidation potential: +750 mV; model MF 1000, Bioanalytical System Inc., West Lafayette, IN, USA) and an Ag/AgCl reference electrode (model MW 2021, Bioanalytical System Inc., West Lafayette, IN, USA) with a special thin-layer gasket for the microbore LC-EC. In order to minimize dead volume, the column was connected directly between the micro-sampler and the working electrode. The mobile phase included 1-heptane sulfonic acid sodium salt (MW: 202.25) 3.15 g, EDTA 0.15 g, phosphoric acid 4.5 ml, triethylamine 5.25 ml, acetonitrile 255 ml, distilled water (added to 1.5 liters), pH 2.7. […] This is the first invention utilizing the defined modified microdialysis system for the measurement of .OH in the rat eye in vivo.
For electro-physiological, immuohistochemical, and molecular biological studies, drug administration was carried out with pre-administration (60 minutes before HIOP) of vehicle (saline for FA/TMP), FA (0.5 or 0.1 nmole), or TMP (0.5 nmole). The 60-minute HIOP procedure to induce ischaemic damage was carried out as defined. Intra-vitreous injection (i.v.i.) of 5 μl of each compound was given to the ‘ischaemic’ eye of each test rat using a 30-gauge needle attached to a 20 μl Hamilton syringe. […]

Thy-1 mRNA = test: Semi-quantitative RT-PCR of Thy-1 mRNA in the retina after ischaemia/reperfusion; format: in vivo, Wistar rat; settings: 7 days after I/R, sham operation 100.0000, n=4
Experimental: as §1
Levels of Thy-1 mRNAs present in the retinas were determined using a semi-quantitative RT-PCR technique. These were compared with the mRNA levels measured for the house-keeping gene β-actin as an internal standard (Nucci, C., et al. Invest Opthalmol V is Sci. 48(7):2997-3004, 2007). Seven days after sham operation alone or retinal ischaemia pre-treated with vehicle or defined chemicals, the rats were killed and the retinas removed and sonicated in TriReagent (as per manufacturer's instructions). Total retinal RNA was isolated and first strand cDNA synthesis was performed on 4 μg DNase-treated RNA (Nash, M. S., et al. Invest. Opthalmol. Vis. Sci. 40:1293-8, 1999). […]
The PCR reaction products were separated on 1.5% agarose gels using ethidium bromide for visualization. The relative abundance of each PCR product was determined by analyzing photographs of the gels by SigmaScan (Jandel Scientific, Corte Madera, Calif.). […]

[6] = system: ChAT immunoreactivity (cholinergic amacrine cells) in the ischaemic retina; test: ChAT immunofluorescence of the retina after ischaemia/reperfusion; format: in vivo, Wistar rat; settings: 7 days reperfusion
Experimental: On day 7 after retinal ischaemia pre-treated with vehicle or tested compounds, the Wistar rats were killed by an overdose of sodium pentobarbitone injected into the peritoneal cavity as mentioned earlier. Rat retinas were carefully and rapidly dissected from the eyecups with the aim of completely detaching the sensory retina from the RPEs. They were incubated in Mg^2+-free Locke's buffer containing: 154 mM NaCl, 5.6 mM KCl, 2.3 mM CaCl2, 3.6 mM NaHCO3, 5 mM N-[2-hydroxyethyl]piperazine-N′-[2-ethanesulfonic acid] (HEPES) and 5.6 mM D-glucose. The Locke's solution was briefly equilibrated before use with a gas mixture of 95% O2 and 5% CO2 at 37° C., pH 7.4. Retinal pieces were fixed for a further 45 minutes in 4% (w/v) paraformaldehyde in sodium phosphate buffer (0.2 M NaH2PO4.2H2O; 0.2M Na2HPO4; pH 7.4) and then transferred to 30% sucrose in sodium phosphate buffer for cryosectioning. Retinas were orientated and similarly mounted on a metal stand using O.C.T. compound (Merck Ltd) and then promptly frozen with dry ice. In this way, sections from similar areas were produced and thus the retinal sections (10 μm) had approximately the same eccentricity, which allowed direct comparison. […]

hydroxyl radicals (.OH) [7] = test: ROS assay in vivo (2,3-DHBA by vitreous microdialysis) in experimental siderosis
Experimental: Iron toxicity and the formation of .OH were stimulated by an intravitreous application of FeSO4 with or without the presence of the test compounds FA and/or TMP. For the dose-response iron toxicity experiments, 24 mM (72 nmoles), 8 mM (24 nmoles) and 0.8 mM (2.4 nmoles) of FeSO4 were utilized. To test drug biochemical effects on the oxidative stress caused by the experimental siderosis, an intravitreous injection of FA (100 mM) was carried out 60 minutes before siderosis.
Trapping of hydroxyl radicals was accomplished by perfusing physiological saline containing 5 mM salicylic acid through a microdialysis probe (CMA/12, PC 14/01, CMA/Microdialysis, Stockholm, Sweden) inserted into the vitreous cavity of a rat eye after intra-vitreous implantation of either an iron or acrylate chip for the defined chronic model and its control. […] Salicylate was infused at the rate of 1.1 μl/min using a 1-ml Exmire microsyringe attached to a microdialysis pump (CMA-100, CMA/Microdialysis, Stockholm, Sweden). This was carried out every 15 or 20 minutes starting either 60 or 20 minutes before the implantation/injection and continued for 6 hours or 120 minutes following treatment, respectively. […] The hydroxyl radicals were quantified by using 8, 16, 24, 32 and 40 pmoles of 2,3-DHBA (which is photosensitive and can be dissolved in ethanol) as an internal standard.

[8] = system: glutamate release in the retina
Experimental: Using the same microdialysis system as the ROS assay in vivo, each microdialysate was assayed for the presence of derivatized glutamate product by HPLC with a fluorescence detector (FL; model CMA/280, CMA/Microdialysis, Stockholm, Sweden). The derivatization reaction was carried out at room temperature. O-phthalaldehyde (OPA; 27 mg; Fisher Scientific, Loughborough, UK) was dissolved in 1 ml methanol, 9 ml 0.4 M potassium tetraborate (MW: 303.53; borate buffer: 1.5 g borate plus pure water adjusted to pH 9.5 with 6 M NaOH and then added with water to 100 ml) and 5 μl β-mercaptoethanol (Fisher Scientific, Loughborough, UK). The OPA stock reagent was covered in foil and stored at −20° C. for 1 month. The OPA working solution was prepared each day by diluting 1 ml of the OPA stock reagent with 3 ml of potassium tetraborate (0.4 M). […] For the HPLC separation, the detector output voltage (signal) was monitored using one data system (Scientific Information Service Corporation, Taiwan). […]
Before use, the mobile phase was filtered through a 0.22 μm filter (Millipore) using vacuum assistance. […] The detection sensitivity was 10 M. All standard samples and test samples were analyzed in duplicate.

cortical cells = settings: 40 μM FeSO4 vs saline; n=5
Experimental: The cortical cells to be tested were placed on a cover slip and loaded with calcium ion sensitive dye by incubation with a final concentration of 5 μM of the acetoxymethyl ester form of Fura-2 for 30 min at 37° C. in the 1 ml loading buffer. The cover slip was washed three times with buffer containing 150 mM NaCl, 5 mM KCl, 2.2 mM CaCl2, 1 mM MgCl2, 5 mM glucose, 10 mM HEPES, pH 7.4. A micropipette was pulled from a glass capillary by a micropipette puller (P-97, Sutter Instrument Co.) and the tip was polished in a microforge (o.d. 2 μm, MF-83, Narishige). The micropipette was backfilled with the test compound (40 μM FeSO4 or saline) using a fine tip syringe. The cover slip was mounted on an inverted microscope to measure single-cell fluorescence. The ejection mircropipette was positioned at a distance of 10 μm from a cell. A short pulse (0.5s) of the test compound was then applied to a single cell through the micropipette by a microinjection system (Picospritzer II, General Valve) with a pressure of 15 psi. The intracellular calcium concentration, [Ca^2+]i, was calculated using the ratio between the fluorescence at 340 nm and at 380 nm (F340/F380). Changes in the fluorescence ratio represent the changes in the [Ca^2+]i (Yang, D. M., et al. J Microsc 209: 223-227, 2003).

[9] = 0.5 nmole i.v.i. 60 min before 60 min HIOP, 3 days after I/R
[10] = 0.5 nmole i.v.i. 60 min before 60 min HIOP, 5 days after I/R
[11] = 0.5 nmole i.v.i. 60 min before 60 min HIOP, 7 days after I/R
[12] = 0.5 nmole i.v.i. 1 hour before ischaemia
[13] = 0.5 nmole i.v.i. 60 min before ischaemia
[14] = FeSO4 injected five days earlier, particular example

ERG b-wave ratio (ischaemic eye vs contralateral normal eye) ([2]; 0.1 nmole i.v.i. 60 min before 60 min HIOP, 3 days after I/R): 32.2402±6.3012
ERG b-wave ratio (ischaemic eye vs contralateral normal eye) ([2]; 0.1 nmole i.v.i. 60 min before 60 min HIOP, 5 days after I/R): 35.0948±4.6412
ERG b-wave ratio (ischaemic eye vs contralateral normal eye) ([2]; 0.1 nmole i.v.i. 60 min before 60 min HIOP, 7 days after I/R): 47.0775±5.5396
ERG b-wave ratio (ischaemic eye vs contralateral normal eye) [2, 9]: 48.3576±3.1633
ERG b-wave ratio (ischaemic eye vs contralateral normal eye) [2, 10]: 56.4287±6.9891
ERG b-wave ratio (ischaemic eye vs contralateral normal eye) [2, 11]: 65.8600±6.0998
Effect on FeSO4 induced reduction in the b-wave amplitudes [4]: significantly alleviated
Molecule: COc1cc(/C=C/C(=O)O)ccc1O [FA, ferulic acid]
Attenuation of ischaemia-induced reduction in thickness of Thy-1 immunolabeling [1]: around 15%
Effect on iron-induced changes in ChAT immunoreactivity [3]: counteracted
Levels of 2,3-DHBA (.OH) in vitreous dialysate (hydroxyl radicals (.OH) [5]; 0.1 nmole pre-treatment): 3.48 pmol/15 µL perfusate
Attenuation of ischaemia-evoked increased 2,3-DHBA levels (hydroxyl radicals (.OH) [5]; 0.5 nmole pre-treatment, 60 minutes of ischaemia, vs vehicle-pre-treated ischaemic eyes): around 2 folds
Levels of 2,3-DHBA (.OH) in vitreous dialysate (hydroxyl radicals (.OH) [5]; 0.5 nmole pre-treatment): 2.8574±0.7186 pmole/15 μl perfusate
Thy-1 mRNA/β-actin mRNA ratio (Thy-1 mRNA; 0.1 nmole i.v.i. 1 hour before ischaemia): 65.8968±11.9579
Thy-1 mRNA/β-actin mRNA ratio (Thy-1 mRNA; [12]): 85.1745±10.3177
Effect on I/R-induced changes in ChAT immunoreactivity ([6]; 0.1 nmole i.v.i. 60 min before ischaemia): only a partial counteracting effect
Effect on I/R-induced changes in ChAT immunoreactivity [6, 13]: obviously nullified
Effect on production of OH (2,3-DHBA) in siderosis (hydroxyl radicals (.OH) [7]; 100 μM, siderotic rats insulted by 8 mM FeSO4, vs saline): significantly decreased
Effect on formation of .OH (2,3-DHBA) in siderosis (hydroxyl radicals (.OH) [7]; i.v.i. 60 minutes before siderosis, 8 mM FeSO4): dose-dependently and significantly decreased

ERG b-wave ratio (ischaemic eye vs contralateral normal eye) [2, 9]: 17.9250±11.7135
ERG b-wave ratio (ischaemic eye vs contralateral normal eye) [2, 10]: 17.1500±6.8996
ERG b-wave ratio (ischaemic eye vs contralateral normal eye) [2, 11]: 20.1750±8.5027
Effect on FeSO4 induced reduction in the b-wave amplitudes [4]: tended to alleviate
Molecule: Cc1nc(C)c(C)nc1C [TMP, tetramethylpyrazine]
Levels of 2,3-DHBA (.OH) in vitreous dialysate (hydroxyl radicals (.OH) [5]; 0.5 nmole pre-treatment): 4.6865±1.2661 pmole/15 μl perfusate
Thy-1 mRNA/β-actin mRNA ratio (Thy-1 mRNA; [12]): 46.5876±14.4476
Effect on I/R-induced changes in ChAT immunoreactivity [6, 13]: not affected

Molecule: ferrous sulfate [FeSO4]
Glutamate release in the retina ([8]; 24 mM and/or 8 mM FeSO4, peaks 20 and 40 minutes after siderosis, vs saline): dose-dependent release of glutamate
Glutamate concentration in vitreous dialysate ([8]; 20 minutes after ferrous sulfate treatment (8 mM)): 722 nM
ERG b-wave ratio after intravitreous FeSO4 ([4]; 8 mM FeSO4 (3 μl) intravitreous, at 2 hours): about 45%
ERG a-wave ratio of siderotic eye to normal fellow eye [4, 14]: 40.56%
ERG b-wave ratio of siderotic eye to normal fellow eye [4, 14]: 30.70%
Change in [Ca^2+]i (fura-2 ratio F340/F380) (cortical cells): significant increase
2,3-DHBA formed (hydroxyl radicals (.OH) [7]; 20 minutes after injection of 8 mM FeSO4): 91.23 pmol

Reference: patent US20090239875A1, “Protection of ferulic acid and/or tetramethylpyrazine against retinal ischaemia, glaucoma and siderosis oculi” (Committee on Chinese Medicine and Pharmacy, Department of …, priority 2008, published 2009)
